Measurements taken from the supplement of paper PMC10307832.

Key:
Assay in all cases: relative viability (nuclei count vs DMSO), 5 days (fraction); higher = more cells survive
H3255 = settings: first compound 0.5 µM
Method in brief: (§1)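 Dosing by pin tool came one day after lung cancer cell lines were seeded in 1536-well plates, using either one drug or a fixed anchor-drug dose plus five library-drug doses (not always all listed) in √10 steps. After 5 days, nuclei were counted on 4× images. Relative viability is treated-well nuclei count divided by vehicle-well nuclei count, and values are medians of duplicate plates.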

COR-L 105 = test system: COR-L 105
Method in brief: as §1

PC-3 [JPC-3] = test system: PC-3 [JPC-3]
Method in brief: as §1

EKVX = test system: EKVX
Method in brief: as §1

201T = test system: 201T
Method in brief: as §1

NCI-H647 = test system: NCI-H647
Method in brief: as §1

SW 1573 = test system: SW 1573
Method in brief: as §1

EPLC-272H = test system: EPLC-272H
Method in brief: as §1

NCI-H2170 = test system: NCI-H2170
Method in brief: as §1

BEN = test system: BEN
Method in brief: as §1

NCI-H2085 = test system: NCI-H2085
Method in brief: as §1

## Nc1ccn([C@@H]2O[C@H](CO)[C@@H](O)[C@@H]2O)c(=O)n1 [Cytarabine] + CC1(C)CCC(c2ccc(Cl)cc2)=C(CN2CCN(c3ccc(C(=O)NS(=O)(=O)c4ccc(N[C@H](CCN5CCOCC5)CSc5ccccc5)c(S(=O)(=O)C(F)(F)F)c4)cc3)CC2)C1 [Navitoclax] (partner 0.5 µM)
H3255
  relative viability: 0.332
COR-L 105; first compound 0.005 µM
  relative viability: 0.699
COR-L 105; first compound 0.01581 µM
  relative viability: 0.795
COR-L 105; first compound 0.05 µM
  relative viability: 0.588
COR-L 105; first compound 0.1581 µM
  relative viability: 0.435
COR-L 105; first compound 0.5 µM
  relative viability: 0.34
PC-3 [JPC-3]; first compound 0.005 µM
  relative viability: 0.753
PC-3 [JPC-3]; first compound 0.01581 µM
  relative viability: 0.774
PC-3 [JPC-3]; first compound 0.05 µM
  relative viability: 0.7
PC-3 [JPC-3]; first compound 0.1581 µM
  relative viability: 0.605
PC-3 [JPC-3]; first compound 0.5 µM
  relative viability: 0.556
EKVX; first compound 0.005 µM
  relative viability: 0.936
EKVX; first compound 0.01581 µM
  relative viability: 0.933
EKVX; first compound 0.05 µM
  relative viability: 0.664
EKVX; first compound 0.1581 µM
  relative viability: 0.298
EKVX; first compound 0.5 µM
  relative viability: 0.198
201T; first compound 0.005 µM
  relative viability: 1.24
201T; first compound 0.01581 µM
  relative viability: 1.28
201T; first compound 0.05 µM
  relative viability: 1.19
201T; first compound 0.1581 µM
  relative viability: 1.16
201T; first compound 0.5 µM
  relative viability: 1.14
NCI-H647; first compound 0.005 µM
  relative viability: 0.73
NCI-H647; first compound 0.01581 µM
  relative viability: 0.517
NCI-H647; first compound 0.05 µM
  relative viability: 0.148
NCI-H647; first compound 0.1581 µM
  relative viability: 0.092
NCI-H647; first compound 0.5 µM
  relative viability: 0.0675
SW 1573; first compound 0.005 µM
  relative viability: 0.979
SW 1573; first compound 0.01581 µM
  relative viability: 0.79
SW 1573; first compound 0.05 µM
  relative viability: 0.556
SW 1573; first compound 0.1581 µM
  relative viability: 0.223
SW 1573; first compound 0.5 µM
  relative viability: 0.103
EPLC-272H; first compound 0.005 µM
  relative viability: 1.01
EPLC-272H; first compound 0.01581 µM
  relative viability: 0.849
EPLC-272H; first compound 0.05 µM
  relative viability: 0.842
EPLC-272H; first compound 0.1581 µM
  relative viability: 0.33
EPLC-272H; first compound 0.5 µM
  relative viability: 0.247
NCI-H2170; first compound 0.01581 µM
  relative viability: 0.448
NCI-H2170; first compound 0.05 µM
  relative viability: 0.361
NCI-H2170; first compound 0.1581 µM
  relative viability: 0.28
NCI-H2170; first compound 0.5 µM
  relative viability: 0.263
BEN; first compound 0.005 µM
  relative viability: 0.059
BEN; first compound 0.01581 µM
  relative viability: 0.0619
BEN; first compound 0.05 µM
  relative viability: 0.159
BEN; first compound 0.1581 µM
  relative viability: 0.0433
BEN; first compound 0.5 µM
  relative viability: 0.0457
NCI-H2085; first compound 0.005 µM
  relative viability: 1.15
NCI-H2085; first compound 0.01581 µM
  relative viability: 1.08
NCI-H2085; first compound 0.05 µM
  relative viability: 1.02
NCI-H2085; first compound 0.1581 µM
  relative viability: 0.731
NCI-H2085; first compound 0.5 µM
  relative viability: 0.728
